The values that follow come from ChEMBL document CHEMBL6120941, “Discovery of SIRT1-Activating Hydrogen Sulfide Donating Derivatives for Efficient Resistant of Myocardial Ischemic Injury” (J Med Chem, 2024).

Data set [1] has as its target T1, NAD-dependent protein deacetylase sirtuin-1 (Rattus norvegicus) (UniProt A0A0G2JZ79).
T1 sequence (whole entry): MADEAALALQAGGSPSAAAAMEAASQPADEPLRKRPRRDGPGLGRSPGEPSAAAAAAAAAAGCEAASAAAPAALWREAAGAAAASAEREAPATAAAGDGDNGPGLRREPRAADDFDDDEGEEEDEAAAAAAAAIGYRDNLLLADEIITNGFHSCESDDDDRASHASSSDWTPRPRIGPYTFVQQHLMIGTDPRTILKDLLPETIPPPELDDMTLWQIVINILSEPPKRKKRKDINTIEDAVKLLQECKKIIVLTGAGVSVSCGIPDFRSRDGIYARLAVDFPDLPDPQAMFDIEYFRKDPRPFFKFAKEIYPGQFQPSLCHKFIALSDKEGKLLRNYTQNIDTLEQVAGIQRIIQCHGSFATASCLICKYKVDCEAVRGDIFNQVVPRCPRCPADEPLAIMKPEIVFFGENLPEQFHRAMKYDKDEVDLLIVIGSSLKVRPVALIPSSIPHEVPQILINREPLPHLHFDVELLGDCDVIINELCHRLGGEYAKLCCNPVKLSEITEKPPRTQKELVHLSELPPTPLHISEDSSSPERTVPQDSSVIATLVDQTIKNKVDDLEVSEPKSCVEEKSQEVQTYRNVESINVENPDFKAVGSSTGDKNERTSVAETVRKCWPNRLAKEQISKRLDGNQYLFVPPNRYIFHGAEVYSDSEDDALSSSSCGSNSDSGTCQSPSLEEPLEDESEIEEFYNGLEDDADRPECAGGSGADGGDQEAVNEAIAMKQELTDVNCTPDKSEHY
The data set can be described thus: Activation of SIRT1 in CoCl2-induced cellular hypoxia injury in rat H9c2 cells at 10 uM incubated for 24 hrs in presence of GSSG by immunofluorescence based analysis. Type of data set: cell-based.

Data set [2] has as its system H9c2. The data set can be described thus: Cardioprotective activity against CoCl2-induced cellular hypoxia injury in rat H9c2 cells assessed as reduction in apoptosis at 5 to 10 uM incubated for 24 hrs by flow cytometry. The class given is functional, cell-based. The note with it: dose 5-10 µM. (A flow cytometer gives signals particle by particle.)
The test system of data set [3] is H9c2. The data set can be described thus: Cardioprotective activity against CoCl2-induced cellular hypoxia injury in rat H9c2 cells assessed as cell viability at 5 uM incubated for 24 hrs by CCK-8 assay (reference value: 51.80 +/- 2.58 %). Type of data set: functional. The conditions noted are these: read-out: Activity. For orientation: Tetrazolium dyes change colour on reduction, which living cells bring about.

For data set [4], the system named is Rattus norvegicus. The data set can be described thus: Cardioprotective activity in myocardial ischemia Sprague-Dawley rat model assessed as myocardial infarction area at 30 mg/kg, IG treated for 7 days consecutively followed by ISO administration daily for 2 days consecutively by TTC staining based analysis (reference value: 32.65 %). The note with it: time 9 day. Type of data set: functional.

The test system of data set [5] is H9c2. The data set can be described thus: Cardioprotective activity against CoCl2-induced cellular hypoxia injury in rat H9c2 cells assessed as mitochondrial membrane potential at 10 uM incubated for 24 hrs by JC-1 staining based analysis (reference value: 48.08 %). Type of data set: functional.
For data set [6], the system named is H9c2. The experiment in a line: Antioxidant activity against CoCl2-induced cellular hypoxia injury in rat H9c2 cells assessed as increase in hypoxia-reduced GSH level at 5 to 10 uM incubated for 24 hrs. Type of data set: functional, cell-based. The conditions noted are these: dose 5-10 µM.
Data set [7] relates to Rattus norvegicus. The data set can be described thus: In vivo activation of SIRT1 in myocardial tissue of myocardial ischemia Sprague-Dawley rat model at 10 to 30 mg/kg, IG treated for 7 days consecutively followed by ISO administration daily for 2 days consecutively by Western blot analysis. The class given is functional, organism-based. The note with it: dose 10-30 mg/kg, time 9.0 day. (A western blot detects proteins with antibodies after separation by electrophoresis.)

The target in data set [8] is T1, NAD-dependent protein deacetylase sirtuin-1 (Rattus norvegicus). The experiment in a line: Activation of SIRT1 in CoCl2-induced cellular hypoxia injury in rat H9c2 cells at 5 to 10 uM incubated for 24 hrs by immunofluorescence based analysis. Type of data set: cell-based. The note with it: filed as activator, dose 5-10 µM.
In data set [9] the test system is H9c2. The data set can be described thus: Cardioprotective activity against CoCl2-induced cellular hypoxia injury in rat H9c2 cells assessed as increase in cell viability at 30 uM incubated for 24 hrs by CCK-8 assay. The class given is functional, cell-based.
In data set [10] the test system is H9c2. The experiment in a line: Cardioprotective activity against CoCl2-induced cellular hypoxia injury in rat H9c2 cells assessed as cell viability at 2.5 uM incubated for 24 hrs by CCK-8 assay (reference value: 51.80 +/- 2.58 %). Type of data set: functional. The conditions noted are these: read-out: Activity.
The subject of data set [11] is H9c2. The data set can be described thus: Antioxidant activity against CoCl2-induced cellular hypoxia injury in rat H9c2 cells assessed as decrease in hypoxia-induced CK level at 5 to 10 uM incubated for 24 hrs. Type of data set: functional, cell-based. The note with it: dose 5-10 µM.
Data set [12] deals with H9c2. The data set can be described thus: Antioxidant activity against CoCl2-induced cellular hypoxia injury in rat H9c2 cells assessed as increase in hypoxia-reduced SOD level at 5 to 10 uM incubated for 24 hrs. The class given is functional, cell-based. The note with it: dose 5-10 µM.
The test system of data set [13] is Rattus norvegicus. The experiment in a line: Cardioprotective activity in myocardial ischemia Sprague-Dawley rat model assessed as myocardial infarction area at 10 mg/kg, IG treated for 7 days consecutively followed by ISO administration daily for 2 days consecutively by TTC staining based analysis (reference value: 32.65 %). Type of data set: functional. The conditions noted are these: time 9 day.

A short description of data set [14]: Toxicity in myocardial ischemia Sprague-Dawley rat model assessed as change in body weight at 10 to 30 mg/kg, IG treated for 7 days consecutively followed by ISO administration daily for 2 days consecutively. The class given is organism-based. The note with it: in vivo, po, 216 h, dose 10-30 mg/kg, time 9 day.
Data set [15] concerns H9c2. The data set can be described thus: Cardioprotective activity against CoCl2-induced cellular hypoxia injury in rat H9c2 cells assessed as reduction in necrosis at 5 to 10 uM incubated for 24 hrs by flow cytometry. Type of data set: functional, cell-based. The conditions noted are these: dose 5-10 µM.
Data set [16] concerns Rattus norvegicus. The data set can be described thus: Cardioprotective activity in myocardial ischemia Sprague-Dawley rat model assessed as improvement in cell volume size at 10 to 30 mg/kg, IG treated for 7 days consecutively followed by ISO administration daily for 2 days consecutively by H and E/Masson staining based analysis. The conditions noted are these: dose 10-30 mg/kg, time 9.0 day. The class given is functional, organism-based.

Data set [17] concerns Rattus norvegicus. The data set can be described thus: Cardioprotective activity in myocardial ischemia Sprague-Dawley rat model assessed as improvement in positional rearrangement at 10 to 30 mg/kg, IG treated for 7 days consecutively followed by ISO administration daily for 2 days consecutively by H and E/Masson staining based analysis. The class given is functional, organism-based. The conditions noted are these: dose 10-30 mg/kg, time 9.0 day.

The test system of data set [18] is H9c2. The data set can be described thus: Cardioprotective activity against CoCl2-induced cellular hypoxia injury in rat H9c2 cells assessed as cell viability at 1.25 uM incubated for 24 hrs by CCK-8 assay (reference value: 51.80 +/- 2.58 %). The class given is functional. The note with it: read-out: Activity.
The test system of data set [19] is H9c2. The data set can be described thus: Cardioprotective activity against CoCl2-induced cellular hypoxia injury in rat H9c2 cells assessed as improvement in nuclear shrinkage at 5 to 10 uM incubated for 24 hrs by Hoechst 33258 nuclear staining based analysis. Type of data set: functional, cell-based. The conditions noted are these: dose 5-10 µM.
In data set [20] the test system is H9c2. The experiment in a line: Cardioprotective activity against CoCl2-induced cellular hypoxia injury in rat H9c2 cells assessed as cell viability at 10 uM incubated for 24 hrs by CCK-8 assay (reference value: 51.80 +/- 2.58 %). Type of data set: functional. The note with it: read-out: Activity.
Data set [21] has as its system H9c2. The experiment in a line: Upregulation of SIRT1 mRNA level in CoCl2-induced cellular hypoxia injury in rat H9c2 cells at 5 to 10 uM incubated for 24 hrs by qPCR analysis. The class given is functional, cell-based. The conditions noted are these: dose 5-10 µM.
In data set [22] the test system is H9c2. The experiment in a line: Cardioprotective activity against CoCl2-induced cellular hypoxia injury in rat H9c2 cells assessed as rate of necrosis at 10 uM incubated for 24 hrs in presence of GSSG by flow cytometry (reference value: 22.5 %). The class given is functional.
In data set [23] the test system is H9c2. The data set can be described thus: Cardioprotective activity against CoCl2-induced cellular hypoxia injury in rat H9c2 cells assessed as mitochondrial membrane potential at 10 uM incubated for 24 hrs in presence of GSSG by JC-1 staining based analysis (reference value: 48.08 %). The class given is functional.

Active and inactive are the calls of the source. The rule behind the calls is not given here.

Take `C=CCSSCCC(=O)O[C@H]1CC[C@]2(C)[C@H]3C[C@@H](O)[C@@H]4[C@@H]([C@]5(C)CC[C@@H](C(C)(C)O)O5)CC[C@@]4(C)[C@]3(C)CC[C@H]2C1(C)C`: the result in data set [1] and in data set [9] was inactive. In addition, the result in [2], in [6], in data set [7], in data set [8], in data set [11] and in data set [12] was Active. In addition, the result in data set [15], in data set [16], in [17], in data set [19] and in data set [21] was Active. Besides, in data set [3], the viability at 5 µM turned out to be 94.2%. The Activity in [4] is on record as 13.24%; in data set [5], 92.84%; in [13], 12.68%; in data set [14], “Non-toxic”; in [22] it was 7.54%; in data set [23], 61.96%. For the same molecule, in data set [10], the viability at 2.5 µM was found to be 87.8%. In addition, the viability at 1.25 µM in data set [18] came to 85.7%. Further, the viability at 10 µM in data set [20] was 97.9%.
